Measured values reported in patent publication US20260224589A1 (priority 2023, published 2026).

tested on: AsPC-1 cells; experiment: phospho-ERK HTRF assay in AsPC-1 cells, 4 h treatment; type: cell-based; conditions: Homo sapiens, ASPC1; AsPC-1, 4H; Table 1a class column; read-out: pERK IC50 activity range (*)

Structure (SMILES)	IC50
CON(C)C(=O)c1nn2c(c1C)CN(c1nc(OC[C@@]34CCCN3C/C(=C\F)C4)nc3c1COC(c1cc(N)cc(Cl)c1C(F)(F)F)C3)CCC2 (stereo partly drawn) [compound 450, 5-(7-(5-amino-3-chloro-2-(trifluoromethyl)phenyl)-2-(((S,Z)-2-(fluoromethylene)tetrahydro-1H-pyrrolizin-7a(5H)-yl)methoxy)-7,8-dihydro-5H-pyrano[4,3-d]pyrimidin-4-yl)-N-methoxy-N,3-dimethyl-5,6,7,8-tetrahydro-4H-pyrazolo[1,5-a][1,4]diazepine-2-carboxamide]	0.01 to 0.03 µM
CON(C)C(=O)c1nn2c(c1Cl)CN(c1nc(OC[C@]34CCCN3C[C@@H](C=C(F)F)C4)nc3c1COC(c1cc(N)cc(Cl)c1C(F)(F)F)C3)CCC2 (some centres unmarked) [compound 451]	0.01 to 0.03 µM
CON(C)C(=O)c1nn2c(c1Cl)CN(c1nc(OC[C@@]34CCCN3C[C@H](F)C4)nc3c1COC(c1cc(N)cc(Cl)c1C(F)(F)F)C3)CCC2 (some centres unmarked) [compound 452]	0.01 to 0.03 µM
CON(C)C(=O)c1nn2c(c1Cl)CN(c1nc(OC[C@@]34CCCN3CC(=C(F)F)C4)nc3c1COC(c1c(F)c(N)cc(Cl)c1C(F)(F)F)C3)CCC2 (some centres unmarked) [compound 454]	0.01 to 0.03 µM
CON(C)C(=O)c1nn2c(c1Cl)CN(c1nc(OC[C@@]34CCCN3C/C(=C\F)C4)nc3c1COC(c1c(F)c(N)cc(Cl)c1C(F)(F)F)C3)CCC2 (some centres unmarked) [compound 463]	0.01 to 0.03 µM
CON(C)C(=O)c1nn2c(c1Cl)CN(c1nc(OC[C@@]34CCCN3C[C@H](F)C4)nc3c1COC(c1c(F)c(N)cc(C)c1C(F)(F)F)C3)CCC2 (stereo partly drawn) [compound 464, 5-(2-{[(2R,7aS)-2-fluoro-hexahydropyrrolizin-7a-yl]methoxy}-7-[3-amino-2-fluoro-5-methyl-6-(trifluoromethyl)phenyl]-5H,7H,8H-pyrano[4,3-d]pyrimidin-4-yl)-3-chloro-N-methoxy-N-methyl-4H,6H,7H,8H-pyrazolo[1,5-a][1,4]diazepine-2-carboxamide]	0.01 to 0.03 µM

same assay, conditions: Homo sapiens, ASPC1; AsPC-1, 4h; Table 1b; read-out: PERK IC50 (AsPC-1, 4h)

Structure (SMILES)	IC50
CN(C)C(=O)c1nn2c(c1Cl)CN(c1nc(OC[C@]34CCCN3C[C@@H](C=C(F)F)C4)nc3c1CO[C@H](c1cc(N)cc(Cl)c1C(F)(F)F)C3)CCC2 [compound 456]	< 0.01 µM
C[C@@]1(O)COCCN(c2nc(OC[C@]34CCCN3C[C@@H](C=C(F)F)C4)nc3c2CO[C@H](c2cc(N)cc(Cl)c2C(F)(F)F)C3)C1 [compound 457]	< 0.01 µM
Cc1c(C(=O)N(C)C)nn2c1CN(c1nc(OC[C@]34CCCN3C[C@@H](C=C(F)F)C4)nc3c1CO[C@H](c1c(F)c(N)cc(Cl)c1C(F)(F)F)C3)CCC2 [compound 458]	< 0.01 µM
CN(C)C(=O)c1nn2c(c1Cl)CN(c1nc(OC[C@]34CCCN3C[C@@H](C=C(F)F)C4)nc3c1CO[C@H](c1c(F)c(N)cc(Cl)c1C(F)(F)F)C3)CCC2 [compound 459]	< 0.01 µM
CN(C)C(=O)c1nn2c(c1Cl)CN(c1nc(OC[C@]34CCCN3C[C@@H](C=C(F)F)C4)nc3c1COC(c1c(F)c(N)cc(Cl)c1C(F)(F)F)C3)CCC2 (some centres unmarked) [compound 460]	< 0.01 µM
CON(C)C(=O)c1nn2c(c1Cl)CN(c1nc(OC[C@@]34CCCN3C/C(=C\F)C4)nc3c1CO[C@H](c1c(F)c(N)cc(Cl)c1C(F)(F)F)C3)CCC2 [compound 461]	< 0.01 µM

same assay, conditions: Homo sapiens, ASPC1; Table 3; read-out: pERK Inhibition AsPC-1 IC50

Structure (SMILES)	IC50
CN(C)C(=O)c1nn2c(c1Cl)CN(c1nc(OC[C@@]34CCCN3C[C@H](F)C4)nc3c1CO[C@H](c1c(C(F)(F)F)ccc(N)c1F)C3)CCC2 (single isomer, unassigned) [Example 1]	0.0128 µM

tested on: SW-620; experiment: phospho-ERK HTRF assay in SW-620 cells, 4 h treatment; type: cell-based; conditions: Homo sapiens, Table 3, read-out: pERK Inhibition SW-620 IC50

Structure (SMILES)	IC50
CN(C)C(=O)c1nn2c(c1Cl)CN(c1nc(OC[C@@]34CCCN3C[C@H](F)C4)nc3c1CO[C@H](c1c(C(F)(F)F)ccc(N)c1F)C3)CCC2 (single isomer, unassigned) [Example 1]	0.0144 µM
